Assay results as given in ChEMBL document CHEMBL1201862, “PubChem BioAssay data set” (2004).
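All cell lines were grown in 96-well plates and treated with compound for 48 hours. Here, GI50 denotes the concentration required for 50% inhibition of growth.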 Active and inactive are the calls of the source. No stated cut-off is given here; in the data, active = GI50 up to about 1.1 µM and inactive = higher.

Legend:
Experiment in all cases: inhibition of tumour cell growth, NCI panel, 48 h
[1] = test system: A549
[2] = test system: DU-145
[3] = test system: HCT-116
[4] = test system: HL-60
[5] = test system: HT-29
[6] = test system: LOX IMVI
[7] = test system: MDA-MB-231
[8] = test system: MDA-MB-435
[9] = test system: MDA-N
[10] = test system: NCI-H460
[11] = test system: NCI-H522
[12] = test system: OVCAR-4
[13] = test system: RPMI-8226
[14] = test system: SNB-75
[15] = test system: SR
[16] = test system: U-251
[17] = test system: UACC-257
[18] = test system: UACC-62
[19] = test system: UO-31
[20] = test system: HOP-92

| Compound | GI50 [1] | GI50 [2] | GI50 [3] | GI50 [4] | GI50 [5] | GI50 [6] | GI50 [7] | GI50 [8] | GI50 [9] | GI50 [10] | GI50 [11] | GI50 [12] | GI50 [13] | GI50 [14] | GI50 [15] | GI50 [16] | GI50 [17] | GI50 [18] | GI50 [19] | GI50 [20] |
| --- | --- | --- | --- | --- | --- | --- | --- | --- | --- | --- | --- | --- | --- | --- | --- | --- | --- | --- | --- | --- |
| S=C1CC(c2ccc(Cl)cc2)Sc2ccccc2N1 (configuration not stated) | 55.5 µM (inactive) | 51.4 µM (inactive) | 19.1 µM (inactive) | 30.5 µM (inactive) | > 100 µM (inactive) | 40.8 µM (inactive) | 30.4 µM (inactive) | 87.1 µM (inactive) | > 100 µM (inactive) | 60 µM (inactive) | 21.6 µM (inactive) | 28.8 µM (inactive) | 24.3 µM (inactive) | > 10 µM (inactive) | 33.3 µM (inactive) | 41.3 µM (inactive) | > 100 µM (inactive) | 31.6 µM (inactive) | > 100 µM (inactive) | – |
| CCOC(=O)CON=c1c2ccccc2ccc2ccccc12 | > 100 µM (inactive) | > 100 µM (inactive) | > 100 µM (inactive) | > 100 µM (inactive) | > 100 µM (inactive) | > 100 µM (inactive) | > 100 µM (inactive) | > 100 µM (inactive) | > 100 µM (inactive) | > 100 µM (inactive) | – | > 100 µM (inactive) | > 100 µM (inactive) | > 100 µM (inactive) | > 100 µM (inactive) | > 100 µM (inactive) | > 100 µM (inactive) | > 100 µM (inactive) | > 100 µM (inactive) | > 100 µM (inactive) |
| COC(=O)C(=O)C(C(=O)C(=O)Nc1ccccc1C(N)=O)c1nc2ccc(Cl)cc2nc1O (configuration not stated) | > 100 µM (inactive) | > 100 µM (inactive) | > 100 µM (inactive) | > 100 µM (inactive) | > 100 µM (inactive) | > 100 µM (inactive) | > 100 µM (inactive) | > 100 µM (inactive) | > 100 µM (inactive) | > 100 µM (inactive) | – | > 100 µM (inactive) | > 100 µM (inactive) | 33.7 µM (inactive) | > 100 µM (inactive) | > 100 µM (inactive) | > 100 µM (inactive) | > 100 µM (inactive) | > 100 µM (inactive) | > 100 µM (inactive) |
| NC(=O)C(=CN1CC(=O)NC1=S)C(N)=O | > 100 µM (inactive) | > 100 µM (inactive) | > 100 µM (inactive) | > 100 µM (inactive) | > 100 µM (inactive) | > 100 µM (inactive) | > 100 µM (inactive) | > 100 µM (inactive) | > 100 µM (inactive) | > 100 µM (inactive) | – | > 100 µM (inactive) | – | > 100 µM (inactive) | – | > 100 µM (inactive) | > 100 µM (inactive) | > 100 µM (inactive) | > 100 µM (inactive) | > 100 µM (inactive) |
| OC1C#CCSCC#C/C=C\1 (configuration not stated) | – | > 100 µM (inactive) | 62.1 µM (inactive) | 23.6 µM (inactive) | 65.9 µM (inactive) | 45.2 µM (inactive) | > 100 µM (inactive) | 56 µM (inactive) | 81.3 µM (inactive) | 13.7 µM (inactive) | 17.8 µM (inactive) | > 100 µM (inactive) | – | > 100 µM (inactive) | > 100 µM (inactive) | > 100 µM (inactive) | 30.9 µM (inactive) | > 100 µM (inactive) | > 100 µM (inactive) | 62.2 µM (inactive) |
| COc1c(C)c(C/C=C(\C)CC/C=C(\C)CC/C=C(\C)CCC=C(C)C)c(OC)c2ccccc12 | > 100 µM (inactive) | > 100 µM (inactive) | > 100 µM (inactive) | – | > 100 µM (inactive) | 70 µM (inactive) | > 100 µM (inactive) | > 100 µM (inactive) | > 100 µM (inactive) | 39.7 µM (inactive) | > 100 µM (inactive) | > 100 µM (inactive) | – | > 100 µM (inactive) | 35.7 µM (inactive) | > 100 µM (inactive) | > 100 µM (inactive) | > 100 µM (inactive) | > 100 µM (inactive) | > 100 µM (inactive) |
| CSc1c(C(=O)Nc2ccc(Cl)cc2)c(N)nn1-c1ccccc1 | > 24.5 µM (inactive) | > 100 µM (inactive) | > 100 µM (inactive) | > 100 µM (inactive) | > 100 µM (inactive) | > 100 µM (inactive) | 40.8 µM (inactive) | > 100 µM (inactive) | > 100 µM (inactive) | > 59.2 µM (inactive) | > 100 µM (inactive) | – | > 100 µM (inactive) | 21.6 µM (inactive) | > 100 µM (inactive) | 61.5 µM (inactive) | > 100 µM (inactive) | > 100 µM (inactive) | > 44.8 µM (inactive) | > 100 µM (inactive) |
| CCOC(=O)CCCn1cc(C(=O)OC)nn1 | > 100 µM (inactive) | > 100 µM (inactive) | > 100 µM (inactive) | – | > 100 µM (inactive) | > 100 µM (inactive) | > 100 µM (inactive) | > 100 µM (inactive) | > 100 µM (inactive) | > 100 µM (inactive) | – | > 100 µM (inactive) | – | > 100 µM (inactive) | – | > 100 µM (inactive) | > 100 µM (inactive) | > 100 µM (inactive) | > 100 µM (inactive) | > 100 µM (inactive) |
| C(/c1ccco1)=c1/nc(-c2ccccc2)n2c1nc1ccccc12 | 50 µM (inactive) | > 100 µM (inactive) | 15.5 µM (inactive) | > 100 µM (inactive) | 26.6 µM (inactive) | 42.4 µM (inactive) | 16.5 µM (inactive) | 14.4 µM (inactive) | 17.6 µM (inactive) | 39.2 µM (inactive) | – | 20.5 µM (inactive) | 11.2 µM (inactive) | – | 11.4 µM (inactive) | 40.6 µM (inactive) | > 100 µM (inactive) | 63.1 µM (inactive) | 67 µM (inactive) | 38.1 µM (inactive) |
| OCCOCn1cc(Cn2ncc3c(SCc4ccccc4)ncnc32)nn1 | 40.3 µM (inactive) | 43.7 µM (inactive) | 34.7 µM (inactive) | 13.7 µM (inactive) | 38.2 µM (inactive) | 61.7 µM (inactive) | 88.1 µM (inactive) | 15.5 µM (inactive) | 14.4 µM (inactive) | 38.3 µM (inactive) | 25.4 µM (inactive) | 59.3 µM (inactive) | – | 46 µM (inactive) | – | 44.1 µM (inactive) | 53.7 µM (inactive) | 37.1 µM (inactive) | 61.8 µM (inactive) | 99.8 µM (inactive) |
| CC12CCC(C1)C(C)(C)C2OC(=O)c1ccccc1N (configuration not stated) | 14.8 µM (inactive) | 16.4 µM (inactive) | 13.5 µM (inactive) | 12.9 µM (inactive) | 14.9 µM (inactive) | 18.2 µM (inactive) | 15.9 µM (inactive) | 16.7 µM (inactive) | 15.5 µM (inactive) | 15.7 µM (inactive) | 10.1 µM (inactive) | – | 2.9 µM (inactive) | 20.5 µM (inactive) | 8.24 µM (inactive) | 17.6 µM (inactive) | 15.4 µM (inactive) | 15.5 µM (inactive) | 17 µM (inactive) | 11.8 µM (inactive) |
| Cc1c2oc(=O)c(C#N)cc2c2ccccn12 | > 100 µM (inactive) | > 100 µM (inactive) | 37.6 µM (inactive) | > 100 µM (inactive) | > 100 µM (inactive) | 71.9 µM (inactive) | > 100 µM (inactive) | > 100 µM (inactive) | > 100 µM (inactive) | 32.5 µM (inactive) | – | > 100 µM (inactive) | > 100 µM (inactive) | > 100 µM (inactive) | > 100 µM (inactive) | 99.3 µM (inactive) | > 100 µM (inactive) | > 100 µM (inactive) | 60.7 µM (inactive) | > 100 µM (inactive) |
| CC1=C[C@H](C[C@]2(C)c3c(c4c(C)cccc4oc3=O)O[C@@H]2C)OC1=O | > 100 µM (inactive) | > 100 µM (inactive) | 15.7 µM (inactive) | 22.5 µM (inactive) | 35.6 µM (inactive) | 34.3 µM (inactive) | 40.2 µM (inactive) | 41.7 µM (inactive) | 36.6 µM (inactive) | > 100 µM (inactive) | 22.6 µM (inactive) | – | 0.0778 µM (active) | > 100 µM (inactive) | 22.4 µM (inactive) | > 100 µM (inactive) | > 100 µM (inactive) | 73.1 µM (inactive) | 32.5 µM (inactive) | – |
| O=C1Cc2c([nH]c3c(Br)cccc23)-c2ccccc2N1 | > 100 µM (inactive) | > 100 µM (inactive) | > 10 µM (inactive) | 21.5 µM (inactive) | 59.8 µM (inactive) | 25.8 µM (inactive) | 33.9 µM (inactive) | > 100 µM (inactive) | > 100 µM (inactive) | 45.9 µM (inactive) | – | – | 32.5 µM (inactive) | 33 µM (inactive) | 19.1 µM (inactive) | 57.7 µM (inactive) | > 100 µM (inactive) | 48.8 µM (inactive) | 37.9 µM (inactive) | – |
| COc1c(O)c2c(c3cc(C(=O)N4CCc5c4c(O)c(OC)c4[nH]c(C(=O)N6CC7CC78C6=CC(=O)c6[nH]cc(C)c68)cc54)[nH]c13)CCN2C(N)=O (configuration not stated) [CC-1065] | 0.000232 µM (active) | 0.284 µM (active) | 0.000207 µM (active) | 0.00783 µM (active) | – | 0.000895 µM (active) | 0.486 µM (active) | 0.182 µM (active) | 0.237 µM (active) | 0.000175 µM (active) | 0.0205 µM (active) | – | 0.027 µM (active) | 0.00356 µM (active) | 0.00914 µM (active) | 0.000191 µM (active) | 0.00352 µM (active) | 0.00187 µM (active) | 0.00834 µM (active) | 0.00306 µM (active) |
